From US20040002476A1, “Modified fluorinated nucleoside analogues” (priority 2002, published 2004) come the findings set out here.

The assay concerns HCV replicon. Briefly: HCV replicon system in Huh7 cells (Q-RT-PCR of replicon RNA). The conditions noted are these: Hepatitis C virus, Huh-7, 96 h.
Setting [1] is: read-out: average EC90 value, corrected for cellular toxicity (ΔΔCt vs rDNA/rRNA).

Where two headings read alike, the source gives them in different places.

Method: Antiviral testing of candidate compounds for Flaviviridae: The HCV replicon system in Huh7 cells.
Add the test compound immediate after seeding the cells and incubate for a period of 3 to 7 days at 37° C. in an incubator. Media is then removed, and the cells are prepared for total nucleic acid extraction (including replicon RNA and host RNA). Replicon RNA can then be amplified in a Q-RT-PCR protocol, and quantified accordingly. […] In such experiments, one way to express the antiviral effectiveness of a compound is to subtract the threshold RT-PCR cycle of the test compound with the average threshold RT-PCR cycle of the negative control. This value is called DeltaCt (ΔCt or DCt). […] As a positive control, recombinant interferon alfa-2a (Roferon-A, Hoffmann-Roche, New Jersey, USA) is taken alongside as positive control.
In a typical setting, a compound might reduce both the host RNA polymerase activity and the replicon-encoded polymerase activity. Therefore, quantification of rRNA (or any other host RNA polymerase I product) or beta-actin mRNA (or any other host RNA polymerase II) and comparison with RNA levels of the no-drug control is a relative measurement of the effect of the test compound on host RNA polymerases.
With the availability of both the HCV ΔCt data and the rRNA ΔCt, a specificity parameter can be introduced. This parameter is obtained by subtracting both ΔCt values from each other.
In another typical setting, a compound might reduce the host RNA polymerase activity, but not the host DNA polymerase activity. Therefore, quantification of rDNA or beta-actin DNA (or any other host DNA fragment) and comparison with DNA levels of the no-drug control is a relative measurement of the inhibitory effect of the test compound on cellular DNA polymerases
With the availability of both the HCV ΔCt data and the rDNA ΔCt, a specificity parameter can be introduced. This parameter is obtained by subtracting both ΔCt values from each other. […] However, compounds with a ΔΔCt value of less than 2, but with limited molecular cytotoxicty (rDNA ΔCT between 0 and 2) may be desired. […]

As for `Nc1ccn([C@@H]2O[C@H](CO)[C@@H](O)[C@H]2F)c(=O)n1` [2′-Deoxy-2′F-Cytidine, 2′-deoxy-2′-fluorocytidine], the EC90 reads like this: (read-out: EC90 (1-log reduction of replicon HCV RNA, 3.3 Ct) (converted)) about 5 µM; under setting [1], about 10 µM. Consider `Nc1ccn([C@@H]2O[C@H](CO)[C@@H](O)C2(F)F)c(=O)n1` [Gemcitabine, β-D-2′,2′-difuoro-2′ deoxycytidine, reference compound], for which the EC90 under setting [1] is about 0.3 µM.
